Where a SMILES comes first, the peptide text is derived from it. [ ]: non-standard residue; d: D form. Oic = O=C(O)[C@@H]1C[C@@H]2CCCC[C@@H]2N1; Gly(octyl) = CCCCCCCC[C@H](N)C(=O)O; N(CH2CH2COOH)Gly = O=C(O)CCNCC(=O)O; hTyr = N[C@@H](CCc1ccc(O)cc1)C(=O)O; aThr = C[C@H](O)[C@H](N)C(=O)O; β3hP = O=C(O)C[C@@H]1CCCN1; Pip = O=C(O)[C@@H]1CCCCN1; Dab = NCC[C@H](N)C(=O)O; Nlys = NCCCCNCC(=O)O
How the values were obtained:
Format in all cases: biochemical
[1] = target: T1, porcine pancreatic elastase (Sus scrofa, UniProt P00772); assay: Inhibition of porcine pancreatic elastase (hydrolysis of MeOSuc-AAA-pNA); settings: for hNE/PPE selectivity: ratio of PPE IC50 to hNE IC50; for IC50: substrate MeOSuc-AAA-pNA 1 mM, enzyme 15 nM, 37° C., pH8, read-out: Porcine pancreatic elastase (PPE) IC50
T1 construct: purchased Sigma, USA
T1 sequence (P00772 27-266): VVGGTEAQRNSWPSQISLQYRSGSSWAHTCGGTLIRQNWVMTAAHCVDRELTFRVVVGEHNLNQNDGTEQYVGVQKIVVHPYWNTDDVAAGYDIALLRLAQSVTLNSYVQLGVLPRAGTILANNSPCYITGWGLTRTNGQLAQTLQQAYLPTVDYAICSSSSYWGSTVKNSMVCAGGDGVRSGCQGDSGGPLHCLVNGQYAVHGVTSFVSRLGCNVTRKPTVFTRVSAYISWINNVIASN
How it was run: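 Elastase (15 nM) incubated at 37 °C with 1 mM MeOSuc-AAA-pNA and serially diluted peptides (0.5% DMSO) in 50 mM Tris pH 8, 100 mM NaCl, 0.01% Tween20. pNA release read at 405 nm over 30 min; IC50 from 4-parameter Hill fit.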

[2] = target: T2, human neutrophil elastase (Homo sapiens, UniProt P08246); assay: Inhibition of human neutrophil elastase (hydrolysis of MeOSuc-AAPV-pNA); settings: substrate MeOSuc-AAPV-pNA 0.3 mM, enzyme 10 nM, 37° C., pH 8; read-out: Human neutrophil elastase (hNE) IC50
T2 construct: purchased Serva Electrophoresis, Germany
T2 sequence (P08246 30-267): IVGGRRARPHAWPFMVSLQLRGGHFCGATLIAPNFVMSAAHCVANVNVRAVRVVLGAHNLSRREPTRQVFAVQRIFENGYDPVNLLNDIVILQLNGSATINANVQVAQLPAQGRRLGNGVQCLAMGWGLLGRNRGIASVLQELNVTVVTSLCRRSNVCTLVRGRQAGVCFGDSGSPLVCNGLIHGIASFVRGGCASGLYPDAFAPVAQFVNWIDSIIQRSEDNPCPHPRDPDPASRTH
How it was run: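 MeOSuc-AAPV-pNA (0.3 mM) hydrolysis by 10 nM enzyme at 37° C with serially diluted peptides (1% DMSO) in 50 mM Tris pH 8, 300 mM NaCl, 0.01% Tween20. pNA release read at 405 nm over 30 minutes; IC50 from 4-parameter Hill fit.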

human proteinase 3 = target: T3, human proteinase 3 (Homo sapiens, UniProt P24158); assay: Inhibition of human proteinase 3 (substrate Boc-Ala-Ala-Nva-SBzl); settings: for hNE/hPr3 selectivity: ratio of hPr3 IC50 to hNE IC50; for IC50: substrate Boc-Ala-Ala-Nva-SBzl 1 mM, enzyme 10 nM, 37° C., pH7.4, read-out: Human proteinase 3 (hPr3) IC50
T3 construct: purchased Elastin Products Company, USA
T3 sequence (P24158 28-248): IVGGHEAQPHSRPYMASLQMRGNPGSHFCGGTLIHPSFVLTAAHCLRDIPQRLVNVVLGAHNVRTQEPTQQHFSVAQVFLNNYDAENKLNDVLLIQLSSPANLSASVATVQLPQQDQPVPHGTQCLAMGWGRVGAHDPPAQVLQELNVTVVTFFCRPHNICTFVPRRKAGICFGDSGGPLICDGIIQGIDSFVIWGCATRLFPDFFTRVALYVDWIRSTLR
How it was run: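 Enzyme at 10 nM incubated at 37°C with 1 mM thiobenzyl ester substrate, 250 μM 4,4′-dithiodipyridine and serial peptide dilutions (0.5% DMSO) in Tris pH 7.4, 150 mM NaCl, 0.01% Tween20. Absorbance at 340 nm followed over 30 min; IC50 from 4-parameter Hill fit.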

SMILES | hNE/PPE selectivity [1] | IC50 [1] [µM] | IC50 [2] [nM] | hNE/hPr3 selectivity (human proteinase 3) | IC50 (human proteinase 3) [µM]
CCCCCCCC[C@@H]1NC(=O)C[C@@H]2CCCN2C(=O)[C@H]2CCCN2C(=O)[C@H]([C@@H](C)O)NC(=O)[C@H](CCCCN)NC(=O)[C@H](CCC(N)=O)NC(=O)[C@@H]2CCCN2C(=O)[C@@H]2CCCN2C(=O)[C@H]([C@@H](C)CC)NC(=O)[C@H](CO)NC(=O)[C@H](C)NC(=O)[C@H]([C@@H](C)O)NC(=O)[C@H](CCC(=O)O)NC1=O [Example 39] (cyclo([Gly(octyl)]ETASIPPQKT[dP][β3hP])) | 30310 | 87.9 | 2.9 | 24655 | 71.5
CC[C@H](C)[C@@H]1NC(=O)[C@H](CO)NC(=O)[C@H](C)NC(=O)[C@H]([C@@H](C)O)NC(=O)[C@H](CCc2ccc(O)cc2)NC(=O)[C@H](CCCNC(=N)N)NC(=O)[C@H](CCC(=O)O)NC(=O)[C@H]2CCCN2C(=O)[C@H]([C@@H](C)O)NC(=O)[C@H](CCCCN)NC(=O)[C@H](CCC(N)=O)NC(=O)[C@@H]2C[C@@H]3CCCC[C@@H]3N2C(=O)[C@@H]2CCCN2C1=O [Example 43, Cyclo(-Arg-hTyr-Thr-Ala-Ser-Ile-Pro-Oic-Gln-Lys-Thr-^DPro-Glu-)] (cyclo(R[hTyr]TASIP[Oic]QKT[dP]E)) | >237037 | > 100 | 2.7 | >237037 | > 100
CC[C@H](C)[C@@H]1NC(=O)[C@H](CO)NC(=O)[C@H](C)NC(=O)[C@H]([C@@H](C)O)NC(=O)[C@H](CCC(=O)O)NC(=O)[C@H](CCNC(=O)[C@@H](N)Cc2ccccc2)NC(=O)[C@@H]2CCCN2C(=O)[C@H]2CCCN2C(=O)[C@H](Cc2ccc(O)cc2)NC(=O)[C@H](CCCCN)NC(=O)[C@H](CCC(N)=O)NC(=O)[C@@H]2CCCN2C(=O)[C@@H]2CCCN2C1=O [Example 9, Cyclo(-Dab(Phe)-Glu-Thr-Ala-Ser-Ile-Pro-Pro-Gln-Lys-Tyr-^DPro-Pro-)] (cyclo([Dab](Phe)ETASIPPQKY[dP]P)) | 215 | 3.72 | 17.3 | 711 | 12.3
CCCCCCCC[C@@H]1NC(=O)[C@@H]2CCCN2C(=O)[C@H]2CCCN2C(=O)[C@H]([C@H](C)O)NC(=O)[C@H](CCCCN)NC(=O)[C@H](CCC(N)=O)NC(=O)[C@@H]2CCCN2C(=O)[C@@H]2CCCN2C(=O)[C@H]([C@@H](C)CC)NC(=O)[C@H](CO)NC(=O)[C@H](C)NC(=O)[C@H]([C@@H](C)O)NC(=O)[C@H](CCC(=O)O)NC1=O [Example 3, Cyclo(-OctGly-Glu-Thr-Ala-Ser-Ile-Pro-Pro-Gln-Lys-alloThr-^DPro-Pro-)] (cyclo([Gly(octyl)]ETASIPPQK[aThr][dP]P)) | 209 | 1.42 | 6.8 | 149 | 1.01
CCCCCCCC[C@@H]1NC(=O)[C@@H]2CCCN2C(=O)[C@H]2CCCN2C(=O)[C@H](CC(N)=O)NC(=O)[C@H](CCCCN)NC(=O)[C@H](CCC(N)=O)NC(=O)[C@@H]2CCCN2C(=O)[C@@H]2CCCN2C(=O)[C@H]([C@@H](C)CC)NC(=O)[C@H](CO)NC(=O)[C@H](C)NC(=O)[C@H]([C@@H](C)O)NC(=O)[C@H](CCc2ccc(O)cc2)NC1=O [Example 48] (cyclo([Gly(octyl)][hTyr]TASIPPQKN[dP]P)) | 148 | 0.4 | 2.7 | 407 | 1.1

The remaining compounds from weak to strong by IC50 [1], led by results:

hNE/PPE selectivity [1] | IC50 [1] [µM] | IC50 [2] [nM] | hNE/hPr3 selectivity (human proteinase 3) | IC50 (human proteinase 3) [µM] | SMILES
4660 | 74.1 | 15.9 | 2906 | 46.2 | CC[C@H](C)[C@@H]1NC(=O)[C@H](CO)NC(=O)[C@H](C)NC(=O)[C@H]([C@@H](C)O)NC(=O)[C@H](CCC(=O)O)NC(=O)[C@H](CCC(=O)N[C@@H](Cc2ccccc2)C(=O)O)NC(=O)[C@@H]2CCCN2C(=O)[C@H]2CCCN2C(=O)[C@H](Cc2ccc(O)cc2)NC(=O)[C@H](CCCCN)NC(=O)[C@H](CCC(N)=O)NC(=O)[C@@H]2CCCN2C(=O)[C@@H]2CCCN2C1=O [Example 18, Cyclo(-Glu(Phe)-Glu-Thr-Ala-Ser-Ile-Pro-Pro-Gln-Lys-Tyr-^DPro-Pro-)] (cyclo(E(Phe)ETASIPPQKY[dP]P))
2128 | 28.3 | 13.3 | 669 | 8.9 | CCCCCCCC[C@@H]1NC(=O)[C@H](C)NC(=O)[C@@H](C)NC(=O)[C@H]([C@@H](C)O)NC(=O)[C@H](CCCCN)NC(=O)[C@H](CCC(N)=O)NC(=O)[C@@H]2CCCN2C(=O)[C@@H]2CCCN2C(=O)[C@H]([C@@H](C)CC)NC(=O)[C@H](CO)NC(=O)[C@H](C)NC(=O)[C@H]([C@@H](C)O)NC(=O)[C@H](CCC(=O)O)NC1=O [Example 20, Cyclo(-OctGly-Glu-Thr-Ala-Ser-Ile-Pro-Pro-GI n-Lys-Thr-^DAla-Ala-)] (cyclo([Gly(octyl)]ETASIPPQKT[dA]A))
2119 | 21.4 | 10.1 | >9901 | > 100 | CCCCCCCC[C@@H]1NC(=O)[C@@H]2CCCN2C(=O)[C@H]2CCCN2C(=O)[C@H]([C@@H](C)O)NC(=O)[C@H](CCCCN)NC(=O)[C@H](CCC(N)=O)NC(=O)[C@@H]2CCCN2C(=O)[C@@H]2CCCN2C(=O)[C@H]([C@@H](C)CC)NC(=O)[C@H](CO)NC(=O)[C@H](C)NC(=O)[C@H]([C@@H](C)O)NC(=O)[C@H](Cc2ccccc2)NC1=O [Example 13, Cyclo(-OctGly-Phe-Thr-Ala-Ser-Ile-Pro-Pro-Gln-Lys-Thr-^DPro-Pro-)] (cyclo([Gly(octyl)]FTASIPPQKT[dP]P))
1717 | 10.3 | 6 | 1717 | 10.3 | CCCCCCCC[C@@H]1NC(=O)[C@H](C(C)C)NC(=O)[C@@H](Cc2ccc(O)cc2)NC(=O)[C@H]([C@@H](C)O)NC(=O)[C@H](CCCCN)NC(=O)[C@H](CCC(N)=O)NC(=O)[C@@H]2CCCN2C(=O)[C@@H]2CCCN2C(=O)[C@H]([C@@H](C)CC)NC(=O)[C@H](CO)NC(=O)[C@H](C)NC(=O)[C@H]([C@@H](C)O)NC(=O)[C@H](CCC(=O)O)NC1=O [Example 23, Cyclo(-OctGly-Glu-Thr-Ala-Ser-Ile-Pro-Pro-Gln-Lys-Thr-^DTyr-Val-)] (cyclo([Gly(octyl)]ETASIPPQKT[dY]V))
295 | 3.92 | 13.3 | 305 | 4.06 | CCCCCCCC[C@@H]1NC(=O)[C@@H]2CCCN2C(=O)[C@H]2CCCN2C(=O)[C@H]([C@@H](C)O)NC(=O)[C@H](CCCCN)NC(=O)[C@H](CCC(N)=O)NC(=O)[C@@H]2CCCN2C(=O)CN(CCC(=O)O)C(=O)[C@H]([C@@H](C)CC)NC(=O)[C@H](CO)NC(=O)[C@H](C)NC(=O)[C@H]([C@@H](C)O)NC(=O)[C@H](CCC(=O)O)NC1=O [Example 7, Cyclo(-OctGly-Glu-Thr-Ala-Ser-Ile-Nglu-Pro-Gln-Lys-Thr-^DPro-Pro-)] (cyclo([Gly(octyl)]ETASI[N(CH2CH2COOH)Gly]PQKT[dP]P))
324 | 2.3 | 7.1 | 127 | 0.9 | CCCCCCCC[C@@H]1NC(=O)[C@@H]2CCCN2C(=O)[C@H]2CCCN2C(=O)[C@H]([C@@H](C)O)NC(=O)[C@H](CCCCN)NC(=O)[C@H](CCC(N)=O)NC(=O)[C@@H]2CCCCN2C(=O)[C@@H]2CCCN2C(=O)[C@H]([C@@H](C)CC)NC(=O)[C@H](CO)NC(=O)[C@H](C)NC(=O)[C@H]([C@@H](C)O)NC(=O)[C@H](CCC(=O)O)NC1=O [Example 45, Cyclo(-OctGly-Glu-Thr-Ala-Ser-Ile-Pro-Pip-Gln-Lys-Thr-^DPro-Pro-)] (cyclo([Gly(octyl)]ETASIP[Pip]QKT[dP]P))
208 | 1.6 | 7.7 | 195 | 1.5 | CCCCCCCC[C@@H]1NC(=O)[C@@H]2CCCN2C(=O)[C@H]2CCCN2C(=O)[C@H]([C@@H](C)O)NC(=O)[C@H](CCCCN)NC(=O)[C@H](CCC(N)=O)NC(=O)CN(CCCCN)C(=O)[C@@H]2CCCN2C(=O)[C@H]([C@@H](C)CC)NC(=O)[C@H](CO)NC(=O)[C@H](C)NC(=O)[C@H]([C@@H](C)O)NC(=O)[C@H](CCC(=O)O)NC1=O [Example 35, Cyclo(-OctGly-Glu-Thr-Ala-Ser-Ile-Pro-Nlys-Gln-Lys-Thr-^DPro-Pro-)] (cyclo([Gly(octyl)]ETASIP[Nlys]QKT[dP]P))

From patent US10273267B2, “Beta-hairpin peptidomimetics as selective elastase inhibitors” (POLYPHOR AG, priority 2013, dated 2019)
